The results in this text go back to patent US20240374673A1, “PHARMACEUTICAL COMPOSITION FOR PREVENTING OR TREATING INFLAMMATORY SKIN DISEASE” (3BIGS CO., LTD., priority 2021, published 2024).

This data set can be described thus: Body weight in chronic contact dermatitis mouse model. The format is in vivo. To be noted: DNCB mice. Here is the method:
The 6-week-old male […] mouse used in the animal experiment is a species of ‘SKH-1 hairless’ and barely has body hair to ensure convenience in intuitively observing the skin condition, of which was divided, for experiment, into 3 groups out of 18 individuals in total (6 individuals for a negative control group/6 individuals for a positive control group/6 individuals for a novel peptide treated group).
After an adaptation period of about 2 weeks, 100 μL of 2,4-dinitrochlorobenzene (DNCB) prepared at a concentration of 1% in solution of acetone: olive oil (3:1) was applied onto the dorsal skin of mice at a certain time every day. After 1 week, if the incidence of contact dermatitis was observed, the DNCB was lowered to 0.5% and applied by 100 μL every 2 days, and the novel peptide was prepared in normal saline at a concentration of 1 mg/ml and applied by 100 μg daily for 3 weeks, while skin condition was observed every week during the experiment.

Residues, ends and D or L forms follow the SMILES beside them.

Take `C[C@@H](O)[C@H](NC(=O)[C@@H](N)CCCCN)C(=O)N[C@@H](Cc1ccccc1)C(=O)N[C@@H](CCCNC(=N)N)C(=O)O` [novel peptide, KTFR] (H-KTFR-OH): the “changes in the body weight” value (100 μg applied daily for 3 weeks) is on record as “no significant changes in the body weight”. Moreover, the “stress induced by the peptide” value (concluded from body weight) is reported as “no stress was induced”.
